# Data from publication PMC11239830, “Synthetic macrolides overcoming MLSBK-resistant pathogens” (Cell Discovery, 2024).
# Read-outs that look alike come from different tables or passages of the source.
# Columns and labels:
# [1] = test system: E. coli JW5503 ΔtolC pDualrep2; experiment: pDualrep2 dual-reporter assay; type: cell-based; details: red = Katushka2S, translation inhibitors; green = RFP, DNA damage
# [2] = test system: E. coli S30 extract protein synthesis; experiment: In vitro E. coli transcription/translation assay; type: biochemical; details: cell-free transcription/translation, materials from E. coli
# Excerpt: The in vitro transcription/translation assay for E. coli utilized materials from the E. coli S30 extract system for circular DNA (L1020, Promega, USA). This kit contains all the necessary components for efficient transcription and translation of a user-provided DNA template. To test the inhibition of protein synthesis, the assay uses plasmid pBESTluc, which contains the firefly luciferase gene, as the DNA template. The intensity of luminescence resulting from luciferase expression corresponds to the efficiency of protein synthesis. The luminescence intensity was quantified in the presence or absence of the tested compounds. […] This experiment was repeated twice independently.
# HEK293T cells = experiment: CCK-8 assay for cytotoxicity; type: cell-based, human; details: 48 h; for cytotoxicity at 5 μM: HEK293T
# In short: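 Cells seeded at 6 × 10^3 (HepG2) or 4 × 10^3 (HEK293T) per well in DMEM/10% FBS, treated after overnight culture with compound dilutions for 48 h. Viability read with CCK-8 reagent; triplicate wells, three independent repeats.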
# [3] = test system: human ribosome (HEK293F whole-cell lysate); experiment: Mammalian cell-free in vitro translation assay; type: biochemical; details: human ribosomes, read-out: IC50, translation of Fluc mRNA
# Method: For the in vitro translation assay, the whole-cell extract was derived from cultured HEK293F cells. The translation reactions were conducted in a total volume of 10 μL, comprising 4 μL of the HEK293F extract, 1 μL 10× Translation Buffer containing 160 mM HEPESs-KOH (pH 7.6), 100 mM Creatine phosphate, 1 mM Spermidine, 10 mM ATP, 1 mM GTP, 20 mM DTT, 800 ng/μL CKM, 600 mM KOAc, 30 mM Mg(OAc)2 and 200 μM Amino acids. The reaction mixture also included 2 U of RiboLock RNase inhibitor (ThermoFisher Scientific), 0.5 mM D-luciferin (Promega), 1 μL of either antibiotic solution or solvent (water or 10% DMSO), as specified, and 100 ng mRNA (added as a 1 μL water solution after pre-incubation of the reaction mixture with antibiotic for 5 min at 30 °C). Following the addition of mRNA, the mixtures were transferred to a pre-heated 96-well CELL CULTER PLATE (WHB), sealed with a PCR plate seal, and incubated in the CLARIOstar plate reader (BMG Labtech) at 37 °C with continuous luciferase activity measurement, following established procedures[66],[67]. Luciferase activity values were determined based on light intensities at 60 min.
# H. influenzae = experiment: MIC, broth microdilution; type: cell-based, Haemophilus influenzae
# In short: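 Minimum inhibitory concentrations were measured by broth microdilution following CLSI guidelines. Plates were incubated at 37 °C for 16–20 h before results were read and recorded, and each determination was repeated at least three times.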
# S. aureus [4] = experiment: MICs and MBCs against selected S. aureus isolates; type: cell-based, Staphylococcus aureus
# S. aureus [5] = experiment: Time-kill kinetics assay; type: cell-based, Staphylococcus aureus
# Method: To further determine the bactericidal activity of MCX-219, a time-kill assay was performed according to the method described previously. The S. aureus cultured overnight was diluted 10^4 times with CAMHB broth and incubated for 2 h. […] The number of colonies was measured at 0 h, 1 h, 3 h, 6 h, 9 h and 24 h. A flask containing bacteria left unexposed to antibiotic was used as blank control, and telithromycin was used as the positive drug (comparator drug).
# [6] = In vivo pharmacokinetic study; parameters: species or system SD rats; details: SD (Sprague-Dawley), rat, iv, plasma
# Method: The SD rats were fasted overnight and dosed i.v. at a dose of 5 mg/kg in a solution of DMSO/PEG 400/water (5%/24%/71%). The whole blood was collected into tubes containing sodium heparin at 0.083 h, 0.25 h, 0.5 h, 1 h, 2 h, 4 h, 8 h and 24 h after dosing. After centrifugation of 6000 rpm for 10 min at 4 °C, plasma samples were transferred into 1.5 mL tubes and stored at –20 °C. Prior to analysis, the samples were thawed on ice. An amount of 50 μL of each plasma sample was added to a mixture of 50 μL of propranolol (300 ng/mL) and 100 μL of acetonitrile and centrifuged at 12,000 rpm at 4 °C for 10 min. The supernatant was diluted and analyzed by LC-MS/MS. The liquid chromatography was conducted on a Thermo Scientific Q Exactive HF-X (ThermoFisher Scientific, USA) instrument, employing an ACQUITY UPLC BEH C18 Column with dimensions of 130 Å, 1.7 µm, 2.1 mm × 100 mm. The liquid phase method employed gradient elution with mobile phases consisting of acetonitrile and an 0.1% aqueous formic acid solution. Mass spectrometry was conducted in positive ion mode. The quantification of drug concentration in plasma samples was performed using the internal standard method, and the obtained pharmacokinetic parameters were calculated using Phoenix WinNonlin software.
# [7] = Haemophilus influenzae, ATCC49247, H. influenzae ATCC49247, Azi-S, read-out: MIC
# [8] = Staphylococcus aureus, ATCC29213, S. aureus ATCC29213 (Table S10), read-out: MIC
# [9] = Staphylococcus aureus, MRSA, strain 1, MRSA, i-ermA
# [10] = Staphylococcus aureus, MRSA, strain 4, MRSA, i-ermA
# [11] = Staphylococcus aureus, MRSA, strain 5, MRSA, i-ermC
# [12] = Staphylococcus aureus, MRSA, strain 6, MRSA, c-ermB
# [13] = Staphylococcus aureus, MRSA, strain 7, MRSA, c-ermB
# [14] = Staphylococcus aureus, MRSA, strain 10, MRSA, c-ermB
# [15] = Staphylococcus aureus, MRSA, strain 11, MRSA, c-ermB
# [16] = Staphylococcus aureus, MSSA, strain 2, MSSA, i-ermC, read-out: MIC
# [17] = Staphylococcus aureus, MSSA, strain 3, MSSA, i-ermC, read-out: MIC
# [18] = Staphylococcus aureus, MSSA, strain 8, MSSA, c-ermB
# [19] = Staphylococcus aureus, S. aureus ATCC29213, read-out: MBC
# [20] = Staphylococcus aureus, strain 3, MSSA, i-ermC, read-out: MBC
smiles,measurement,setting,value
CC[C@H]1OC(=O)[C@H](C)[C@@H](OC(=O)NCCCOCCC#Cc2ccc3c(=O)c(C(=O)O)cn(C)c3c2)[C@H](C)[C@@H](O[C@@H]2O[C@H](C)C[C@H](N(C)C)[C@H]2O)[C@](C)(OC)C[C@@H](C)C(=O)[C@H](C)[C@H]2NC(=O)O[C@@]21C [MCX-190],dual-reporter inhibition zone colour,[1],red color inhibition zone
same,IC50,[2],0.67 µM
same,cytotoxicity at 5 μM,HEK293T cells,significantly reduced cytotoxicity compared to TcmX
same,IC50,[3],> 100 µM
CC[C@H]1OC(=O)[C@H](C)[C@@H](OC(=O)NCCCCCCC#Cc2ccc3c(=O)c(C(=O)O)cn(C)c3c2)[C@H](C)[C@@H](O[C@@H]2O[C@H](C)C[C@H](N(C)C)[C@H]2O)[C@](C)(OC)C[C@@H](C)C(=O)[C@H](C)[C@H]2NC(=O)O[C@@]21C [MCX-219],MIC,"H. influenzae; H. influenzae ATCC49247, Azi-S, listed as 88g",4 µg/mL
same,MIC,H. influenzae; [7],2 µg/mL
same,MBC/MIC,S. aureus [4]; S. aureus ATCC29213,4
same,MIC,S. aureus [4]; [8],0.25 µg/mL
same,MBC,S. aureus [4]; [9],1 µg/mL
same,MIC,S. aureus [4]; [9],0.25 µg/mL
same,MBC,S. aureus [4]; [10],0.5 µg/mL
same,MIC,S. aureus [4]; [10],0.12 µg/mL
same,MBC,S. aureus [4]; [11],2 µg/mL
same,MIC,S. aureus [4]; [11],1 µg/mL
same,MBC,S. aureus [4]; [12],16 µg/mL
same,MIC,S. aureus [4]; [12],2 µg/mL
same,MBC,S. aureus [4]; [13],> 16 µg/mL
same,MIC,S. aureus [4]; [13],2 µg/mL
same,MBC,S. aureus [4]; [14],16 µg/mL
same,MIC,S. aureus [4]; [14],4 µg/mL
same,MBC,S. aureus [4]; [15],> 16 µg/mL
same,MIC,S. aureus [4]; [15],2 µg/mL
same,MIC,S. aureus [4]; [16],0.25 µg/mL
same,MIC,S. aureus [4]; [17],0.25 µg/mL
same,MBC,S. aureus [4]; [18],16 µg/mL
same,MIC,"S. aureus [4]; Staphylococcus aureus, MSSA, strain 8, MSSA, c-ermB, read-out: MIC",4 µg/mL
same,MIC,"S. aureus [4]; Staphylococcus aureus, MSSA, strain 9, MSSA, c-ermB, read-out: MIC",0.5 µg/mL
same,MBC,S. aureus [4]; [19],1 µg/mL
same,MBC,S. aureus [4]; [20],2 µg/mL
same,S. aureus isolates with bactericidal activity (MBC/MIC ≤ 4),S. aureus [4]; selected S. aureus isolates,58.3%
same,MBC/MIC,"S. aureus [4]; strain 1, MRSA, i-ermA",4
same,MBC,"S. aureus [4]; strain 2, MSSA, i-ermC",2 µg/mL
same,MBC/MIC,"S. aureus [4]; strain 2, MSSA, i-ermC",8
same,MBC/MIC,"S. aureus [4]; strain 3, MSSA, i-ermC",8
same,MBC/MIC,"S. aureus [4]; strain 4, MRSA, i-ermA",4
same,MBC/MIC,"S. aureus [4]; strain 5, MRSA, i-ermC",2
same,MBC/MIC,"S. aureus [4]; strain 6, MRSA, c-ermB",8
same,MBC/MIC,"S. aureus [4]; strain 7, MRSA, c-ermB",> 8
same,MBC/MIC,"S. aureus [4]; strain 8, MSSA, c-ermB",4
same,MBC/MIC,"S. aureus [4]; strain 9, MSSA, c-ermB",4
same,MBC/MIC,"S. aureus [4]; strain 10, MRSA, c-ermB",4
same,MBC/MIC,"S. aureus [4]; strain 11, MRSA, c-ermB",> 8
same,time-kill kinetics,S. aureus [5]; constitutively erm-modified S. aureus 15B196,bactericidal
same,time-kill kinetics,S. aureus [5]; induciblely erm-modified S. aureus PU32,bacteriostatic
same,dual-reporter inhibition zone colour,[1],red color inhibition zone
same,IC50,[2],1.19 µM
same,CC50,HEK293T cells; HEK293T cell viability,26 µM
same,cytotoxicity at 5 μM,HEK293T cells,significantly reduced cytotoxicity compared to TcmX
same,IC50,[3],> 100 µM
same,Cmax,"[6]; male SD rats, i.v. 5 mg/kg",15000 ± 2810 ng/mL
same,MRT,"[6]; male SD rats, i.v. 5 mg/kg",1.13 ± 0.0139 h
same,Tmax,"[6]; male SD rats, i.v. 5 mg/kg",4.8 min
same,half-life,"[6]; male SD rats, i.v. 5 mg/kg",3.92 ± 0.117 h
same,AUC(0-inf),"[6]; male SD rats, i.v. 5 mg/kg, mean ± SD, n 3",7090 ± 1360 ng·h/mL
same,AUC(0-t),"[6]; male SD rats, i.v. 5 mg/kg, read-out: AUC0-24",7080 ± 1360 ng·h/mL
same,clearance,"[6]; male, 5 mg/kg",12.2 mL/min/kg
"CC[C@H]1OC(=O)[C@H](C)C(=O)[C@H](C)[C@@H](O[C@@H]2O[C@H](C)C[C@H](N(C)C)[C@H]2O)[C@](C)(OC)C[C@@H](C)C(=O)[C@H](C)[C@H]2N(CCCCn3cnc(-c4cccnc4)c3)C(=O)O[C@]12C [telithromycin, reference compound]",MIC,H. influenzae; [7],4 µg/mL
same,MIC,S. aureus [4]; [8],0.12 µg/mL
same,MBC,"S. aureus [4]; Staphylococcus aureus, MRSA, strain 1, MRSA, i-ermA, read-out: MBC",> 2 µg/mL
same,MIC,"S. aureus [4]; Staphylococcus aureus, MRSA, strain 1, MRSA, i-ermA, read-out: MIC",0.25 µg/mL
same,MBC,"S. aureus [4]; Staphylococcus aureus, MRSA, strain 4, MRSA, i-ermA, read-out: MBC",> 1 µg/mL
same,MIC,"S. aureus [4]; Staphylococcus aureus, MRSA, strain 4, MRSA, i-ermA, read-out: MIC",0.12 µg/mL
same,MBC,"S. aureus [4]; Staphylococcus aureus, MRSA, strain 5, MRSA, i-ermC, read-out: MBC",> 2 µg/mL
same,MIC,"S. aureus [4]; Staphylococcus aureus, MRSA, strain 5, MRSA, i-ermC, read-out: MIC",0.25 µg/mL
same,MBC,"S. aureus [4]; Staphylococcus aureus, MRSA, strain 6, MRSA, c-ermB, read-out: MBC",> 64 µg/mL
same,MIC,"S. aureus [4]; Staphylococcus aureus, MRSA, strain 6, MRSA, c-ermB, read-out: MIC",8 µg/mL
same,MBC,"S. aureus [4]; Staphylococcus aureus, MRSA, strain 7, MRSA, c-ermB, read-out: MBC",> 64 µg/mL
same,MIC,"S. aureus [4]; Staphylococcus aureus, MRSA, strain 7, MRSA, c-ermB, read-out: MIC",8 µg/mL
same,MBC,"S. aureus [4]; Staphylococcus aureus, MRSA, strain 10, MRSA, c-ermB, read-out: MBC",> 128 µg/mL
same,MIC,"S. aureus [4]; Staphylococcus aureus, MRSA, strain 10, MRSA, c-ermB, read-out: MIC",16 µg/mL
same,MIC,S. aureus [4]; [15],128 µg/mL
same,MIC,S. aureus [4]; [16],0.12 µg/mL
same,MIC,S. aureus [4]; [17],0.12 µg/mL
same,MIC,S. aureus [4]; [18],> 256 µg/mL
same,MIC,"S. aureus [4]; Staphylococcus aureus, MSSA, strain 9, MSSA, c-ermB",> 256 µg/mL
same,MBC,S. aureus [4]; [19],> 1 µg/mL
same,MBC,S. aureus [4]; [20],> 1 µg/mL
same,MBC,"S. aureus [4]; strain 2, MSSA, i-ermC",> 1 µg/mL
